# From ChEMBL document CHEMBL1201862, “PubChem BioAssay data set” (2004)
# Activity calls are given as the source filed them.
# How the values were obtained:
# Phosphomannomutase 2 = target: T1, Phosphomannomutase 2 (Homo sapiens, UniProt O15305); assay: Counter screen SAR assay for PMM2 inhibitors via a fluorescence intensity assay. [Related pubchem assays (depositor defined):AID1545, AID1574]
# T1 sequence (O15305 whole entry): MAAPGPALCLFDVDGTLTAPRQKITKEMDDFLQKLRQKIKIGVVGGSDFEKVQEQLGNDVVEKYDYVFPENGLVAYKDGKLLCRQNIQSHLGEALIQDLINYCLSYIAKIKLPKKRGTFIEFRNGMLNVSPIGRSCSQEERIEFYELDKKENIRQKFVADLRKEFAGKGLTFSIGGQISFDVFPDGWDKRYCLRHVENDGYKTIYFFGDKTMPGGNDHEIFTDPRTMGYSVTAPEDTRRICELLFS
# [1] = target: Phosphoethanolamine/phosphocholine phosphatase (Homo sapiens, UniProt Q8TCT1); assay: SAR assay for compounds that inhibit PHOSPHO1. [Related pubchem assays (depositor defined):AID1545, AID1565, AID1574]
# [2] = target: T2, Mannose-6-phosphate isomerase (Homo sapiens, UniProt P34949); assay: PMI enzyme inhibitors, confirmation, biochemical, fluorescence intensity (AID 1535)
# T2 sequence (P34949 whole entry): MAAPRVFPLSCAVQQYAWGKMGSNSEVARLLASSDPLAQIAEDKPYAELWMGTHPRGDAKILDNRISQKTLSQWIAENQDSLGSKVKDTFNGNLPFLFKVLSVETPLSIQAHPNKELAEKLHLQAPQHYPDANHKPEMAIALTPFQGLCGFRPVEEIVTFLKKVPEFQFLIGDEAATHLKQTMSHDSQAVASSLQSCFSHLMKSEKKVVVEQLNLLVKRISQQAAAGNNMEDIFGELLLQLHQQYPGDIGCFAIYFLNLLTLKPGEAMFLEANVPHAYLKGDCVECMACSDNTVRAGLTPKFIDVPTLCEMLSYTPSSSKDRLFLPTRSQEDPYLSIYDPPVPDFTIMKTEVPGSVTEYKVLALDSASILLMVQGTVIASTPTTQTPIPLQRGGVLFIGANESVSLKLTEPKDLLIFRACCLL
# Cytochrome P450 2C19 = Cytochrome P450 2C19 (Homo sapiens, UniProt P33261); assay: Cytochrome panel assay with activity outcomes. Panel member name: p450-cyp2c19 Compounds with AC50 equal or less than 10 uM are considered active; format: functional; conditions: read-out: AC50
# Cytochrome P450 2C9 = Cytochrome P450 2C9 (Homo sapiens, UniProt P11712)
# Cytochrome P450 3A4 = Cytochrome P450 3A4 (Homo sapiens, UniProt P08684);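 further: CYP3A4 tested as one member of a cytochrome P450 panel screen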
# Mu-type opioid receptor = Mu-type opioid receptor (Homo sapiens, UniProt P35372); assay: SAR Analysis of Antagonists of the MOR Receptor using an Image-Based Assay - Set 3. [Related pubchem assays (depositor defined):AID1777, AID1785, AID1786, AID1966, AID2133, AID2136, AID2284, AID2285, AID2420]; format: functional
# [3] = target: Delta-type opioid receptor (Homo sapiens, UniProt P41143); assay: SAR Analysis of Antagonists of the DOR Receptor using an Image-Based Assay - Set 3. [Related pubchem assays (depositor defined):AID1777, AID1785]; format: functional;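 further: U2OS cells expressing DOR1 and beta-arrestin GFP stimulated with 100 nM SNC80; imaging of GFP-tagged beta-arrestin moving into spots after receptor activation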
# [4] = target: T3, Kappa-type opioid receptor (Homo sapiens, UniProt P41145); assay: SAR analysis of small molecule antagonists of the kappa opioid receptor via a luminescent beta-arrestin assay - Set 3. [Related pubchem assays (depositor defined):AID1777, AID1778, AID1785, AID1786, AID1966, AID2133, AID2136, AID2285, AID2495]; format: functional
# [5] = target: T3, Kappa-type opioid receptor; assay: SAR analysis of Antagonists of the Kappa Opioid Receptor (KOR) using an Image-Based Assay - Set 4. [Related pubchem assays (depositor defined):AID1777, AID1785]; format: functional
# [6] = THP-1 cell cytotoxicity, dose response, cytotoxicity control for non-replicating M. tuberculosis project (AID 489025); format: functional
# [7] = Vero E6 cell cytotoxicity, dose response, cytotoxicity control for non-replicating M. tuberculosis project, secondary assay (AID 492998); format: functional, VeroE6; conditions: Vero C1008
# Keap1/Nrf2 = Keap1/Nrf2 (Homo sapiens, UniProt Q14145); assay: Keap1-Nrf2 protein-protein interaction inhibitors, dose response, biochemical, fluorescence polarization, cherry-picked samples (AID 588683)
# [8] = target: Dual specificity tyrosine-phosphorylation-regulated kinase 1A (Rattus norvegicus, UniProt Q63470); format: biochemical, Homo sapiens
# T3 sequence (P41145 whole entry): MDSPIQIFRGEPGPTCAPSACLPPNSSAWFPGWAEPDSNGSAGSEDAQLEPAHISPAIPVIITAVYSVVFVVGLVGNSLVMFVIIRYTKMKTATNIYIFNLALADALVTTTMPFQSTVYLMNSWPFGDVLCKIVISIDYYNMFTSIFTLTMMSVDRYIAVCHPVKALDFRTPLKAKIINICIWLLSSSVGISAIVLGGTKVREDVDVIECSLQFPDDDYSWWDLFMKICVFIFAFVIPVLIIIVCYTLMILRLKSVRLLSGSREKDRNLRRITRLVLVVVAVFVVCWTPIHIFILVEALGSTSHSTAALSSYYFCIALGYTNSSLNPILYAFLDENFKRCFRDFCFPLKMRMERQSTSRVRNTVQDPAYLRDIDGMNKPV
# Chain of Phosphoethanolamine/phosphocholine phosphatase (Q8TCT1 whole entry): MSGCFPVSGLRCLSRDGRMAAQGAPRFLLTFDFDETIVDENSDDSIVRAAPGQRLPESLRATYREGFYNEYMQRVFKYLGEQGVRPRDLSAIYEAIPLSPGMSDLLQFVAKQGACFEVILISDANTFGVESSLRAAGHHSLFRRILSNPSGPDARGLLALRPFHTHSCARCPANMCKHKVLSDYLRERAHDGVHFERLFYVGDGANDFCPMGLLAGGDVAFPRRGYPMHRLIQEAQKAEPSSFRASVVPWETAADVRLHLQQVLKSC
# Chain of Mu-type opioid receptor (P35372 whole entry): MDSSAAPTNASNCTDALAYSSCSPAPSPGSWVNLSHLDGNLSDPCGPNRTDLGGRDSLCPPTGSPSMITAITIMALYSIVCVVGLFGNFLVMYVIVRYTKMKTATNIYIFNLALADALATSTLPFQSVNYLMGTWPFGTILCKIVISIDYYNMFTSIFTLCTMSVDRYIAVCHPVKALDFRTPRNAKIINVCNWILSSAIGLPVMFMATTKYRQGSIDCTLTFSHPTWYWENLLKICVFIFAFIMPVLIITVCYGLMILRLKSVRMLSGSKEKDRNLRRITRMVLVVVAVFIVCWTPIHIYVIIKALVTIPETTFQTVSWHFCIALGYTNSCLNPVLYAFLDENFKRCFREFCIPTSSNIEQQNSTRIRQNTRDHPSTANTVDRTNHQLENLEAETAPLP
# Chain of Cytochrome P450 2C19 (P33261 whole entry): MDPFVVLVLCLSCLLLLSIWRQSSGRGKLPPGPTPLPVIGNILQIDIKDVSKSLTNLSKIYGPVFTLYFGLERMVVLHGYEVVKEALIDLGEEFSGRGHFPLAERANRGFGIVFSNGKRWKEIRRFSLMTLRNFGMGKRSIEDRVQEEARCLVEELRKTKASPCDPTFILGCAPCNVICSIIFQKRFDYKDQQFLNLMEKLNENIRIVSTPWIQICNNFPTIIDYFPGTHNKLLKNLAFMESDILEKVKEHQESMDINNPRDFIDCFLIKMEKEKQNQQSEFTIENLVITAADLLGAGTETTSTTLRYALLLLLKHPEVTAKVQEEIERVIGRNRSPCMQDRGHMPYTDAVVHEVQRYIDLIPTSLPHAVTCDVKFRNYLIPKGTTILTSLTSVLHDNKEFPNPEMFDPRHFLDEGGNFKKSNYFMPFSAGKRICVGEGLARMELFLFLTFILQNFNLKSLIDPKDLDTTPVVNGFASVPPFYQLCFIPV
# Chain of Cytochrome P450 3A4 (P08684 whole entry): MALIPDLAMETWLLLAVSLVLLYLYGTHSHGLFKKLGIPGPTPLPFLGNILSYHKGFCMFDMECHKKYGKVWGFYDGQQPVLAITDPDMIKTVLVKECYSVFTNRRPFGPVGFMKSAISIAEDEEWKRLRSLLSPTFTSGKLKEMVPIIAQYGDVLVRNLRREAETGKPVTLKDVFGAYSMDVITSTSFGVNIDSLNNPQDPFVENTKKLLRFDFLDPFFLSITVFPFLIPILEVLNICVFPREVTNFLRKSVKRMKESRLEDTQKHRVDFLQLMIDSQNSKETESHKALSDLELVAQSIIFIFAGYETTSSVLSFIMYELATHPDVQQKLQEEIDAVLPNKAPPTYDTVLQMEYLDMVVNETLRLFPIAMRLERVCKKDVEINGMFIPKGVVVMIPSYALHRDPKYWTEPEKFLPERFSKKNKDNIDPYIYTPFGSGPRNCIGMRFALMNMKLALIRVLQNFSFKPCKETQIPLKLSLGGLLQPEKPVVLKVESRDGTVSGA
# Chain of Keap1/Nrf2 (Q16236 whole entry): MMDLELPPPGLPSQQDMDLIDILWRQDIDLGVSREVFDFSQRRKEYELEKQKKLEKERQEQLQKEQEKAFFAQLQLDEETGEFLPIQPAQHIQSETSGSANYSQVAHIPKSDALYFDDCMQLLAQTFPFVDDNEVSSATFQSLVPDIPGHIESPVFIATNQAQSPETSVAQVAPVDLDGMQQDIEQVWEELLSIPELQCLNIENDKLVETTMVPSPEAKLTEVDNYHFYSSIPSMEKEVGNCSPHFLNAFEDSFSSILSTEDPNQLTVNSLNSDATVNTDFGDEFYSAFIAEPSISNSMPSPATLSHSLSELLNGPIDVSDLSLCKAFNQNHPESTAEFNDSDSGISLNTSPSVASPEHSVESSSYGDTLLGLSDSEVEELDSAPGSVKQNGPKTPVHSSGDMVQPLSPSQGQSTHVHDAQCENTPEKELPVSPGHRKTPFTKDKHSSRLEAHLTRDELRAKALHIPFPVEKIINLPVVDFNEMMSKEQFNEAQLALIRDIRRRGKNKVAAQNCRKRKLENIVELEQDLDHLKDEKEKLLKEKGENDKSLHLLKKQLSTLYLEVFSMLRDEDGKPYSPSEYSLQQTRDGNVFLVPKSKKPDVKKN
# Chain of Keap1/Nrf2 (Q14145 whole entry): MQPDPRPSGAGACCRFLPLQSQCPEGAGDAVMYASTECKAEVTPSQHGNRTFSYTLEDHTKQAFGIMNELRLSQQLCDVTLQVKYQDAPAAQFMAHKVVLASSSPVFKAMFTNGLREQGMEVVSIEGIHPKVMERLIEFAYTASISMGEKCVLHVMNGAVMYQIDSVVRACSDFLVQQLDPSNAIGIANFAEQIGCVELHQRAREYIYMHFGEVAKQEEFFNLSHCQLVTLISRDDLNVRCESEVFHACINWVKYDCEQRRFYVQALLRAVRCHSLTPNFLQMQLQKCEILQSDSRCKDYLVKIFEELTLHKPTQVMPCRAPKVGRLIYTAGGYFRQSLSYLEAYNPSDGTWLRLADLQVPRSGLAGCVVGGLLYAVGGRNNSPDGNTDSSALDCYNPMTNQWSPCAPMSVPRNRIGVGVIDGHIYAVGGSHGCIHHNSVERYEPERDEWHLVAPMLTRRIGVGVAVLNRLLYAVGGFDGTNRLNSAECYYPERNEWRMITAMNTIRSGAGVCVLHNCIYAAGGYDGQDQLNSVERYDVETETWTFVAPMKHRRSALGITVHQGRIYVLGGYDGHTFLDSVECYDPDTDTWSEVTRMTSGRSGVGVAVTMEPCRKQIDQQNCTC
# Chain of Delta-type opioid receptor (P41143 whole entry): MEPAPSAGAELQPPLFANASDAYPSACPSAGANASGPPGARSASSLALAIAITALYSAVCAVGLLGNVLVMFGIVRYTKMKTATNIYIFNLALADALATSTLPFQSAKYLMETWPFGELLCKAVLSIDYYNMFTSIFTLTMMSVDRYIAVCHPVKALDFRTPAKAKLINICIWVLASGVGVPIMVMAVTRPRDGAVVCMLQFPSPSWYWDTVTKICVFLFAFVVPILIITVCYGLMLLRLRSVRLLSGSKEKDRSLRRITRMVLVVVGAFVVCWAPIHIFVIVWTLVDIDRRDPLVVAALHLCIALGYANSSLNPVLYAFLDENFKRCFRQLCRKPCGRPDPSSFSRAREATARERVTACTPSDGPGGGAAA
# Chain of Cytochrome P450 2C9 (P11712 whole entry): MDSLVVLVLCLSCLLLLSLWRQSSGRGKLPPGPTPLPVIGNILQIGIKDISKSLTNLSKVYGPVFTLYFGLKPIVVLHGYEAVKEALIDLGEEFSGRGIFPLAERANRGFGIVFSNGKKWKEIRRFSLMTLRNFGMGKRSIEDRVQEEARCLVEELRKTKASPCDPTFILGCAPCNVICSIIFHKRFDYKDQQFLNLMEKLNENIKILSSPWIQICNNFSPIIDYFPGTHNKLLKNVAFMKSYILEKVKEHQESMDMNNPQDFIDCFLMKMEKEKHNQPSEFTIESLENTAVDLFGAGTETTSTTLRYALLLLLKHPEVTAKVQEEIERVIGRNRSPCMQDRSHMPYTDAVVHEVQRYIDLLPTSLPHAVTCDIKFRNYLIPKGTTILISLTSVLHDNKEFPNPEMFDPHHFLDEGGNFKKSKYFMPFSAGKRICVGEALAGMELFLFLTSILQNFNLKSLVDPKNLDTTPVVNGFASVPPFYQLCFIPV
smiles,measurement,setting,value
O=c1c2ccccc2sn1-c1ccc2ccccc2c1,IC50,Phosphomannomutase 2,88.1 µM (active)
same,IC50,[1],7.81 µM (inactive)
O=c1c2ccccc2sn1-c1ccc(C(F)(F)F)cc1,IC50,[2],41.2 µM (active)
same,IC50,Phosphomannomutase 2,> 100 µM (inactive)
same,IC50,[1],34 µM (inactive)
CC(C)c1ccc(N(C(=O)C(F)(F)F)C(C(=O)NC2CCCCC2)c2ccncc2)cc1 (stereo not drawn),AC50,Cytochrome P450 2C19,1.12 µM (inconclusive)
same,AC50,Cytochrome P450 2C9,2.24 µM (inconclusive)
same,AC50,Cytochrome P450 3A4,inconclusive
CN(CCNC(=O)c1ccc(CNS(=O)(=O)c2ccc([N+](=O)[O-])cc2)cc1)Cc1ccccc1,IC50,Mu-type opioid receptor,1.69 µM (active)
same,IC50,[3],> 32 µM (inactive)
same,IC50,[4],12.1 µM (inactive)
same,IC50,[5],30.2 µM (inactive)
O=c1c2ccccc2sn1-c1nc2ccccc2s1,IC50,[2],> 50 µM (inactive)
same,IC50,Phosphomannomutase 2,> 100 µM (inactive)
C/C(=N\NC(=O)CCc1ccccc1)C1C(=O)c2ccccc2C1=O,CC50,[6],13.8 µM (active)
same,CC50,[7],11.8 µM (active)
O=C1c2ccccc2C(=O)c2c1ccc(O)c2O [ATHRAQUINONES A],AC50,Keap1/Nrf2,> 52 µM (inactive)
same,AC50,[8],4.54 µM (active)
